Among the data in patent US10266497B2 (ABIDE THERAPEUTICS, INC., priority 2017, dated 2019) are inhibition and IC50 values, retold here.

A value given as a limit tells only on which side of the number the result lay.

The target in test [1] is T1, FAAH (Mus musculus, UniProt O08914).
T1 sequence (O08914 1-579): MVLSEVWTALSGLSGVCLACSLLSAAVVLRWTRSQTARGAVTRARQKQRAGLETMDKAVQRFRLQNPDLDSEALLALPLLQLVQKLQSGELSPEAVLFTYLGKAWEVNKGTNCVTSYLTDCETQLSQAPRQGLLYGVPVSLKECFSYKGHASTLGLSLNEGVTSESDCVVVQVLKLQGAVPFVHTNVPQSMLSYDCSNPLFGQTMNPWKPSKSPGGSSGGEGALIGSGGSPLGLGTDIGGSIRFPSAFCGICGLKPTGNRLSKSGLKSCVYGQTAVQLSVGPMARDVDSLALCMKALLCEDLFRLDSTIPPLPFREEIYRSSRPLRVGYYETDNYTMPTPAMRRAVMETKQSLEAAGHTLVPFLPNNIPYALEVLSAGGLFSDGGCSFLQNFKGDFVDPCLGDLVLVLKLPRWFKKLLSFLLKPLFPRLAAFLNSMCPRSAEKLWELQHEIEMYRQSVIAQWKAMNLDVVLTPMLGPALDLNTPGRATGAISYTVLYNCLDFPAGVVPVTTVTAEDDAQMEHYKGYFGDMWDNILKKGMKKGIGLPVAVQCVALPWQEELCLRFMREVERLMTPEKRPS
The test is described as follows: Mouse brain proteomes from inhibitor treated mice (oral gavage, sacrificed 4 h after administration), FAAH. The format is in vivo. Also on record: mouse brain membrane fraction for mouse assays; from tissue; host or cells: mouse brain (membrane fraction in vitro; brain proteomes of treated C57Bl/6J mice in vivo). The note with it: 5 mg/kg oral gavage, brain proteome 4 h after administration, read-out: FAAH % inh. 5 mg/kg (mouse).

Test [2] has as its target T2, FAAH (Homo sapiens, UniProt O00519).
T2 sequence (O00519 1-579): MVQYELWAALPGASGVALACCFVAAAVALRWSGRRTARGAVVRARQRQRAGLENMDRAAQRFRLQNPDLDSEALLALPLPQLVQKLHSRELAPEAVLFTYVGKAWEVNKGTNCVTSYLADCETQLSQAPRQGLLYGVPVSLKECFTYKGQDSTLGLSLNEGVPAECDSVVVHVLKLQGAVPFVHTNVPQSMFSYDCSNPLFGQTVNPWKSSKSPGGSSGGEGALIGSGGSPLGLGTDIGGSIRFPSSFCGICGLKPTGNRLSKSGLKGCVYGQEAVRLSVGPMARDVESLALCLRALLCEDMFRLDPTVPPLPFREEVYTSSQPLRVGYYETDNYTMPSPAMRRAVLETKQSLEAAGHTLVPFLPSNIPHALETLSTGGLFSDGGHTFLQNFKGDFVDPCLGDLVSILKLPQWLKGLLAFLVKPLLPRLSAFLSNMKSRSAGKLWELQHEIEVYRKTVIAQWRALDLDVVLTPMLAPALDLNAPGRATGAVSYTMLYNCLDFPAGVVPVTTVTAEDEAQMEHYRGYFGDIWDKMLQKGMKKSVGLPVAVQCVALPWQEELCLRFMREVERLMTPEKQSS
The test is described as follows: In vitro competitive activity-based protein profiling, FAAH, human. The note with it: for inhibition at 1 µM: read-out: FAAH % inh. 1 μM (human).

In test [3] the target is T1, FAAH. Briefly: In vitro competitive activity-based protein profiling, FAAH, mouse. The note with it: read-out: FAAH % inh. 1 μM (mouse).
Procedure: Biological Evaluation In Vitro Competitive Activity-Based Protein Profiling.
Proteomes (mouse brain membrane fraction for mouse assays; human prefrontal cortex membrane fractions for human assays) (50 mL, 1.0 mg/mL total protein concentration) were preincubated with varying concentrations of inhibitors at 37° C. After 30 min, FP-Rh (1.0 mL, 50 mM in DMSO) was added and the mixture was incubated for another 30 min at 37° C. Reactions were quenched with SDS loading buffer (15 μL—4λ) and run on SDS-PAGE.
The target in test [4] is T3, MAGL (Mus musculus, UniProt O35678).
T3 sequence (O35678 1-303): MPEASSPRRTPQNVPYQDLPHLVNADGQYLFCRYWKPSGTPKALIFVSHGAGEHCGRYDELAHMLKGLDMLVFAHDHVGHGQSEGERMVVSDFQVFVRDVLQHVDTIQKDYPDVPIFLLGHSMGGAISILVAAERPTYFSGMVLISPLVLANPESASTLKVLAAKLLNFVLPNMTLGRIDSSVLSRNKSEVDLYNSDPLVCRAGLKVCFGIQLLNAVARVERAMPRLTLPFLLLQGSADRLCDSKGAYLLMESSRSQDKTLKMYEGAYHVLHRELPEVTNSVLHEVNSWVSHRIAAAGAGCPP
Briefly: In vitro competitive activity-based protein profiling, MAGL, mouse. The conditions noted are these: read-out: MAGL % inh. 1 μM (mouse).

The target in test [5] is T4, MAGL (Homo sapiens, UniProt Q99685).
T4 sequence (Q99685 1-303): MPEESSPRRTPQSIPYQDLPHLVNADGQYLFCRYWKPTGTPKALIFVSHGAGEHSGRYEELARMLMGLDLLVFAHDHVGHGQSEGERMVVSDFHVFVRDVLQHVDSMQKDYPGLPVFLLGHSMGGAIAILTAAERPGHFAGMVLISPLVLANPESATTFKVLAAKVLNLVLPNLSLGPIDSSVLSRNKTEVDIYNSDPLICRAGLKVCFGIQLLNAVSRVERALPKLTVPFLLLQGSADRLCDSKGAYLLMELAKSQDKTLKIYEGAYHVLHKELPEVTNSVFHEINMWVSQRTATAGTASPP
The test is described as follows: In vitro competitive activity-based protein profiling, MAGL, human. The note with it: read-out: MAGL % inh. 1 μM (human).

The target of test [6] is T3, MAGL. Briefly: Mouse brain proteomes from inhibitor treated mice (oral gavage, sacrificed 4 h after administration). The format is in vivo. On the set-up: mouse brain membrane fraction for mouse assays; from tissue; host or cells: mouse brain (membrane fraction in vitro; brain proteomes of treated C57Bl/6J mice in vivo). The conditions noted are these: 5 mg/kg oral gavage, brain proteome 4 h after administration, read-out: MAGL % inh. 5 mg/kg (mouse).

In the case of `O=C(O)c1ccn(C(=O)N2CCC3(CCCN3Cc3ccc(C(F)(F)F)cc3Cl)CC2)n1` [Example 76, 1-(1-(2-chloro-4-(trifluoromethyl)benzyl)-1,8-diazaspiro[4.5]decane-8-carbonyl)-1H-pyrazole-3-carboxylic acid], the inhibition at 5 mg/kg at FAAH [1] and at MAGL [6] was 0 to 25% in each case. Besides, the inhibition at 1 µM at FAAH [2] was 0 to 25%; at FAAH [3], 0 to 25%; on MAGL [4] it was greater than 75%; on MAGL [5], greater than 75%.
Consider `O=C(O)c1ccn(C(=O)N2CCN(Cc3ccc(C(F)(F)F)cc3N3CCCCC3)CC2)n1` [Example 100, 1-(4-(2-(piperidin-1-yl)-4-(trifluoromethyl)benzyl)piperazine-1-carbonyl)-1H-pyrazole-3-carboxylic acid], for which the inhibition at 5 mg/kg at FAAH [1] and on MAGL [6] was 0 to 25% each time. Besides, the IC50 (as a rule, the midpoint of a concentration-inhibition curve) on FAAH [2] lay in the range of 1 to 10 µM. Besides, the inhibition at 1 µM at FAAH [2] is 0 to 25%; on FAAH [3] it was 0 to 25%; at MAGL [4], greater than 75%; on MAGL [5], greater than 75%.
As to `O=C(O)c1ccn(C(=O)N2CCN(Cc3ccc(Cl)cc3N3CC4COCC4C3)CC2)n1` (stereo not shown) [Example 111, 1-(4-(4-chloro-2-(tetrahydro-1H-furo[3,4-c]pyrrol-5(3H)-yl)benzyl)piperazine-1-carbonyl)-1H-pyrazole-3-carboxylic acid], the inhibition at 5 mg/kg on FAAH [1] and on MAGL [6] was 0 to 25% throughout. Besides, the inhibition at 1 µM on FAAH [2] was 0 to 25%; at FAAH [3], 0 to 25%; on MAGL [4] it was greater than 75%; at MAGL [5], greater than 75%.
Take `O=C(O)c1nn(C(=O)N2CCC3(CCCN3Cc3cc4ccc(C(F)(F)F)cc4s3)CC2)cc1Cl` [Example 139, 4-chloro-1-(1-((6-(trifluoromethyl)benzo[b]thiophen-2-yl)methyl)-1,8-diazaspiro[4.5]decane-8-carbonyl)-1H-pyrazole-3-carboxylic acid]: the inhibition at 5 mg/kg at FAAH [1] and at MAGL [6] was 0 to 25% in each case. The inhibition at 1 µM on FAAH [2], on FAAH [3], on MAGL [4] and at MAGL [5] was greater than 75% in each case.
Consider `O=C(O)c1ccn(C(=O)N2CCN(Cc3ccc(C(F)(F)F)cc3N3CC[C@@H](F)C3)CC2)n1` [Example 101, (R)-1-(4-(2-(3-fluoropyrrolidin-1-yl)-4-(trifluoromethyl)benzyl)piperazine-1-carbonyl)-1H-pyrazole-3-carboxylic acid], for which the inhibition at 5 mg/kg at FAAH [1] and at MAGL [6] was 0 to 25% each time. The inhibition at 1 µM is 0 to 25% on FAAH [2], 0 to 25% on FAAH [3], greater than 75% at MAGL [4] and greater than 75% at MAGL [5].
In the case of `O=C(O)c1ccn(C(=O)N2CCN(Cc3ccc(Cl)cc3N3CCCC3)CC2)n1` [Example 107, 1-(4-(4-chloro-2-(pyrrolidin-1-yl)benzyl)piperazine-1-carbonyl)-1H-pyrazole-3-carboxylic acid], the inhibition at 5 mg/kg at FAAH [1] and at MAGL [6] was 0 to 25% throughout. Besides, the inhibition at 1 µM on FAAH [2] was 0 to 25%; at FAAH [3] it was 0 to 25%; at MAGL [4], greater than 75%; at MAGL [5] it was greater than 75%.
Consider `O=C(O)c1ccn(C(=O)N2C[C@H]3C[C@H](OCc4cccc(C(F)(F)F)c4)C[C@H]3C2)n1` [Example 157, 1-(trans-5-((3-(trifluoromethyl)benzyl)oxy)octa-hydrocyclopenta[c]pyrrole-2-carbonyl)-1H-pyrazole-3-carboxylic acid], for which the inhibition at 5 mg/kg on FAAH [1] and on MAGL [6] was 0 to 25% in each case. Also, the IC50 on FAAH [2] lay within 0.1 to 1 µM. Also, the inhibition at 1 µM on FAAH [2], on FAAH [3], at MAGL [4] and on MAGL [5] was greater than 75% in each case.
With `O=C(O)c1ccn(C(=O)N2CCN(Cc3ccc(C(F)(F)F)cc3N3CCN4CCC[C@@H]4C3)CC2)n1` [Example 48, (R)-1-(4-(2-(hexahydropyrrolo [1,2-a]pyrazin-2(1H)-yl)-4-(trifluoromethyl)benzyl)piperazine-1-carbonyl)-1H-pyrazole-3-carboxylic acid], the inhibition at 5 mg/kg on FAAH [1] and on MAGL [6] was 0 to 25% each time. Besides, the inhibition at 1 µM was 0 to 25% on FAAH [2], 0 to 25% at FAAH [3], greater than 75% at MAGL [4] and greater than 75% on MAGL [5].
In the case of `O=C(O)c1ccn(C(=O)N2CCN(Cc3cccc(Oc4ccc(Cl)cc4)c3)CC2)n1` [Example 98, 1-(4-(3-(4-chlorophenoxy)benzyl)piperazine-1-carbonyl)-1H-pyrazole-3-carboxylic acid], the inhibition at 5 mg/kg at FAAH [1] and on MAGL [6] was 0 to 25% in each case. For the same compound, the IC50 on FAAH [2] was 0.1 to 1 µM. The inhibition at 1 µM at FAAH [2], on FAAH [3], on MAGL [4] and on MAGL [5] was greater than 75% throughout.
For `CN(Cc1ccc(C(F)(F)F)cc1-c1nccs1)C1(C)CCN(C(=O)n2ccc(C(=O)O)n2)CC1` [Example 10, 1-(4-methyl-4-(methyl(2-(thiazol-2-yl)-4-(trifluoromethyl)benzyl)amino)piperidine-1-carbonyl)-1H-pyrazole-3-carboxylic Acid], the inhibition at 5 mg/kg on FAAH [1] and at MAGL [6] was 0 to 25% in each case. In addition, the inhibition at 1 µM on FAAH [2] was 0 to 25%; at FAAH [3], 0 to 25%; at MAGL [4], greater than 75%; on MAGL [5], greater than 75%.
As to `O=C(O)c1ccn(C(=O)N2CCN(Cc3cccc(Oc4cc(C(F)(F)F)ccn4)c3)CC2)n1` [Example 57, 1-(4-(3-((4-(trifluoromethyl)pyridin-2-yl)oxy)benzyl)piper-azine-1-carbonyl)-1H-pyrazole-3-carboxylic acid], the inhibition at 5 mg/kg at FAAH [1] and on MAGL [6] was 0 to 25% throughout. Moreover, on FAAH [2], the IC50 lay in the range of 0.1 to 1 µM. Besides, the inhibition at 1 µM is 50 to 75% on FAAH [2], 50 to 75% on FAAH [3], greater than 75% on MAGL [4] and greater than 75% on MAGL [5].
